Patent US20240350478A1, “APPLICATION OF BENZISOQUINOLINE DIKETONE COMPOUND IN TREATMENT OF TUMOR” (NANJING SHIJIANG MEDICINE TECHNOLOGY CO., LTD, priority 2021, published 2024)
Counter-ions that a name gives are not always drawn.

Legend:
Type in all cases: cell-based
[1] = tested on: MDA-MB-453 (breast cancer cell); test: CellTiter-Glo cell viability, MDA-MB-453; settings: Homo sapiens, sensitive group, 3-4 days of culture, n=3
Procedure: (§1) The inhibitory effect of pixantrone maleate on various tumor cell lines was detected using cell activity detection reagent. • Cell viability was detected using the Promega CellTiter-Glo kit, cell viability was determined by directly measuring intracellular ATP content. In the experiment, the IC50 value of pixantrone maleate on various tumor cell lines was determined. Each tumor cell was cultured separately in relevant medium (+p/s), and was incubated for 3 h, then the gradient diluted pixantrone maleate was added. After 3-4 days of culture, the relevant IC50 (50% inhibiting concentration) was measured (n=3). The name, source and culture conditions of each tumor cell line were as follows: Cell line MDA-MB-453 (ATCC, No. HTB-131) was cultured in 10% fetal bovine serum-containing Leibovitz's L-15 medium (+P/S).

[2] = tested on: SW48 (human colon adenocarcinoma cell); test: CellTiter-Glo cell viability, SW48; settings: sensitive group, 3-4 days of culture, n=3
Procedure: as §1, with “SW48” for “MDA-MB-453”, “CCL-231)” for “HTB-131)”

[3] = tested on: CFPAC-1 (human pancreatic cancer cell); test: CellTiter-Glo cell viability, CFPAC-1; settings: insensitive group, 3-4 days of culture, n=3
Procedure: as §1, with “CFPAC-1” for “MDA-MB-453”, “CRL-1918)” for “HTB-131)”, “IMDM” for “Leibovitz's L-15”

[4] = tested on: GB-1 (human glioblastoma cell); test: CellTiter-Glo cell viability, GB-1; settings: insensitive group, 3-4 days of culture, n=3
Procedure: as §1, with “GB-1 (JCRB,” for “MDA-MB-453 (ATCC,”, “IFO50489)” for “HTB-131)”, “DMEM” for “Leibovitz's L-15”

[5] = tested on: NCI-H82 (ov-NNMT) cell; test: CellTiter-Glo cell viability, NNMT protein-overexpressing NCI-H82 (ov-NNMT) cell; settings: Homo sapiens, n=3
Excerpt: (§2) The NNMT protein-overexpressing NCI-H82 cell (NCI-H82 (ov-NNMT)) was obtained by inserting the NNMT gene into NCI-H82 cell using a viral vector. The control NCI-H82 cell (NCI-H82 (Con)) was obtained by transfecting NCI-H82 cell with empty virus vector without carrying NNMT gene. The expressing level of NNMT protein in control NCI-H82 cell (NCI-H82 (Con)) and NNMT protein-overexpressing NCI-H82 cell (NCI-H82 (ov-NNMT)) was detected using Western Blot assay (as shown in FIG. 7), it could be seen from FIG. 7 that the NNMT protein in NCI-H82 (ov-NNMT) cell was overexpressed compared with the expression level of NNMT protein in NCI-H82(Con) cell. The IC50 value of pixantrone maleate on control NCI-H82 cell (NCI-H82 (Con)) and NNMT protein-overexpressing NCI-H82 cell (NCI-H82 (ov-NNMT)) was determined using Promega CellTiter-Glo kit which detected cell viability by directly measuring intracellular ATP content (n=3), the experiment result was shown in Table 4 below: […]

[6] = tested on: 786-O (clear cell renal cell adenocarcinoma cell); test: CellTiter-Glo cell viability, 786-O; settings: Homo sapiens, 786-0, insensitive group, 3-4 days of culture, n=3
Procedure: as §1, with “786-0” for “MDA-MB-453”, “CRL-1932)” for “HTB-131)”, “RPMI1640” for “Leibovitz's L-15”

[7] = tested on: SF-126 (human glioblastoma multiforme cell); test: CellTiter-Glo cell viability, SF-126; settings: insensitive group, 3-4 days of culture, n=3
Procedure: as §1, with “SF126 (JCRB,” for “MDA-MB-453 (ATCC,”, “IFO50286)” for “HTB-131)”, “EMEM” for “Leibovitz's L-15”

[8] = tested on: G-401 (human renal carcinoma Wilms cell); test: CellTiter-Glo cell viability, G-401; settings: sensitive group, 3-4 days of culture, n=3
Procedure: as §1, with “G-401” for “MDA-MB-453”, “CRL-1441)” for “HTB-131)”, “McCoy's 5a” for “Leibovitz's L-15”

[9] = tested on: WSU-DLCL2 (human diffuse large B-cell lymphoma); test: CellTiter-Glo cell viability, WSU-DLCL2; settings: WSUDLCL2, sensitive group, 3-4 days of culture, n=3
Procedure: as §1, with “WSU-DLCL2 (DSMZ,” for “MDA-MB-453 (ATCC,”, “ACC-575)” for “HTB-131)”, “RPMI1640” for “Leibovitz's L-15”

[10] = tested on: NCI-H82 (Con) cell; test: CellTiter-Glo cell viability, control NCI-H82 (Con) cell; settings: Homo sapiens; control NCI-H82 cell transfected with empty virus vector; n=3
Excerpt: as §2

[11] = tested on: NCI-H82 (human small cell lung cancer cell); test: CellTiter-Glo cell viability, NCI-H82; settings: sensitive group, 3-4 days of culture, n=3
Procedure: as §1, with “NCI-H82” for “MDA-MB-453”, “HTB-175)” for “HTB-131)”, “RPMI1640” for “Leibovitz's L-15”

For `NCCNc1ccc(NCCN)c2c1C(=O)c1ccncc1C2=O` [Pixantrone maleate, pixantrone maleate], which IC50 [1] is on record?
Its IC50 is 0.86 µM.

What about the IC50 [2] of the same compound?
The IC50 was 0.02 µM.

And the IC50 [3]?
Its IC50 is 11.7 µM.

What about the IC50 [4] of the same compound?
Its IC50 is 6.56 µM.

And the IC50 [5]?
The IC50 was 1.93 µM.

And the IC50 [6]?
The IC50 was 21.6 µM.

What about the IC50 [7] of the same compound?
The IC50 was 5.42 µM.

What about the IC50 [8] of the same compound?
The IC50 was 0.29 µM.

What about the IC50 [9] of the same compound?
The IC50 was 0.02 µM.

What about the IC50 [10] of the same compound?
The IC50 was 0.69 µM.

What about the IC50 [11] of the same compound?
Its IC50 is 0.74 µM.
